Each block holds one compound with its values, some of them ahead of it.
Assays:
PAF-induced eosinophilia = assay: PAF-induced pulmonary eosinophil accumulation after continuous subcutaneous dosing; type: in vivo, Sprague-Dawley rats; details: 1 mg/kg/day sc for 6 days, rats; BSA + saline control 100, PAF control 250
Procedure: Male Sprague-Dawley rats, 400-600 g, were used in these studies.
The study described here used subcutaneous administration of norketotifen and ketotifen by Alzet® osmotic pumps. The rats were administered either RS-norketotifen hydrogen fumarate (1.0 mg/kg/day) or RS-ketotifen hydrogen fumarate (1.0 mg/kg/day) or saline. After five days of sc infusions of test articles and the vehicle, the animals were injected, i.p. with 10 μg PAF (platelet aggregating factor) in 0.25% bovine serum albumin (BSA) in saline. The subcutaneous infusions of test articles or vehicle were continued for another twenty-four hours and the animals were then sacrificed by intraperitoneal injections of a barbiturate. The tracheae of the euthanized animals were exposed and cannulated and aliquots (6×10 ml) of a Tyrode solution were successively introduced into the lungs and aspirated by gentle compression of the thorax. The total recovery of lung fluid was usually above 80%. The cell suspensions were concentrated by low speed centrifugation (200 g for 10 min) and the resulting cell pellet was resuspended in 1 ml of a Tyrode solution. Total cell counts were performed after dilution in Turks fluid, fixation in methanol and Leishman staining.
The study shown here used norketotifen, ketotifen, and saline (control) after continuous dosing with Alzet® Osmotic pumps.

sedation = details: art-accepted mouse model of sedation; U.S. Pat. Nos. 7,226,934 and 7,557,128; cited from earlier work
IL-13 = assay: PHA-induced release of IL-13 from human buffy coats; type: cell-based; details: 10 uM; PHA 5 μg/ml, 16 hours; inhibition
Procedure: (§1) The study was conducted in two phases. The first phase included optimization of the test methodology and included also dose-range finding studies, using buffy coats from 3 human donors, stimulated with phytohemagglutinin (PHA). The concentrations of the test article and the duration of exposure were optimized to obtain acceptable dose-response ratios. Following optimization of the test conditions, a final protocol was issued. In the Main Study, buffy coats from 5 healthy human male donors were stimulated with PHA, 5 μg/ml.
(§2) The inhibitory effects of three concentrations of NK and one concentration of ketotifen were evaluated in the Main Study. The buffy coats were resuspended in assay media and were pre-incubated for 30 min with either vehicle/saline, ketotifen (10 μM) or norketotifen (1.0; 10 or 100 μM). Following these preincubations, the white blood cell suspensions were stimulated for 16 hours with PHA, 5 μg/ml. The cell system supernatants were then harvested and stored frozen.

IFN-γ = assay: PHA-induced release of IFN-γ from human buffy coats; type: cell-based; details: 10 uM; PHA 5 μg/ml, 16 hours; inhibition
Procedure: as §1, §2

IL-6 = assay: PHA-induced release of IL-6 from human buffy coats; type: cell-based; details: 10 uM; PHA 5 μg/ml, 16 hours; inhibition
Procedure: as §1, §2

IL-1β = assay: PHA-induced release of IL-1β from human buffy coats; type: cell-based; details: 10 uM; PHA 5 μg/ml, 16 hours; inhibition
Procedure: as §1, §2

IL-2 = assay: PHA-induced release of IL-2 from human buffy coats; type: cell-based; details: 10 uM; PHA 5 μg/ml, 16 hours; inhibition
Procedure: as §1, §2

IL-8 = assay: PHA-induced release of IL-8 from human buffy coats; type: cell-based; details: 10 uM; PHA 5 μg/ml, 16 hours; inhibition
Procedure: as §1, §2

IL-10 = assay: PHA-induced release of IL-10 from human buffy coats; type: cell-based; details: 10 uM; PHA 5 μg/ml, 16 hours; inhibition
Procedure: as §1, §2

IL-4 = assay: PHA-induced release of IL-4 from human buffy coats; type: cell-based; details: 10 uM; PHA 5 μg/ml, 16 hours; inhibition
Procedure: as §1, §2

TNF-α = assay: PHA-induced release of TNF-α from human buffy coats; type: cell-based; details: 10 uM; PHA 5 μg/ml, 16 hours; inhibition
Procedure: as §1, §2

[1] = tested on: croton oil-induced ear swelling; assay: Croton oil-induced ear swelling; type: in vivo, CD-1 female mice; parameters: Average ear thickness: unit not given beside the values; details: for Average ear thickness: single oral dose 10 mg/kg 60 min before
Procedure: The effects of NK, PRED and the vehicle (5% PEG in water) were tested orally in CD-1 female mice. Under the test protocol, 20 μl of 1.0% croton oil in acetone was applied topically to both ears of three groups of mice, each group consisting of 6 mice. No attempt was made to remove the croton oil solution since the solvent evaporated within 30 seconds. The oral doses of NK and PRED were 10 mg/kg (10 ml/kg) bodyweight for both compounds and were administered 60 min before the croton oil applications. Vehicle-treated mice were dosed 10 ml/kg of water, containing 5% polyethylene glycol (PEG), which was also the solvent for the test articles. Ear thickness was measured with an electronic caliper and mean ear thickness (N=12; right+left ears) were calculated and compared with the thickness of ears from vehicle-treated mice (Student's t-test).

[2] = tested on: oxazolone-induced increase in ear thickness; assay: Oxazolone test of immunosuppression (ear thickness); type: in vivo, BALB/c mice; details: for Increase in ear thickness (mm): control 0.153; for Increase in ear thickness (%): control 100.0
Procedure: Male BALB/c mice, 20-24 grams, 7-12 weeks, were used. The sensitization dosing (Day 1) consisted of painting the ventral portion of the pre-shaved abdominal skin with 0.1 ml of 3.0% oxazolone in 70% ethanol. Test articles were administered orally in 1.0% methyl-cellulose, starting on Day 1 and continuing for 10 consecutive days. The challenge dosing consisted of the application of 0.05 ml of 3.0% oxazolone in 70% ethanol on both sides of the outer pinna of the right ear. The thickness of both ears of all animals was measured with a calliper before the challenge dose and 24 hours after the administration of the challenge dose (Day 10). The ear thickness of untreated mice was 0.19 to 0.20 mm.
Justification of the model: The classic oxazolone test method was used with minor modifications. This method has been used for over 40 years in numerous drug development projects.

SMILES: CN1CCC(=C2c3ccccc3CC(=O)c3sccc32)CC1.O=C(O)/C=C/C(=O)O [Ketotifen HF, RS-ketotifen hydrogen fumarate, reference compound]
PAF-induced esosinophilia (% ± SEM) (PAF-induced eosinophilia): 110 ± 3%

SMILES: O=C(O)/C=C/C(=O)O.O=C1Cc2ccccc2C(=C2CCNCC2)c2ccsc21 [R-isomer, R-norketotifen]
Sedative effects (sedation): sedative effects were attributed to the R-isomer

SMILES: O=C(O)C=CC(=O)O.O=C1Cc2ccccc2C(=C2CCNCC2)c2ccsc21 [Norketotifen HF, RS-norketotifen hydrogen fumarate]
PAF-induced esosinophilia (% ± SEM) (PAF-induced eosinophilia): 74 ± 4%

SMILES: CN1CCC(=C2c3ccccc3CC(=O)c3sccc32)CC1 [Ketotifen, ketotifen, reference compound]
Effect on PHA-induced release of IL-13 (%) (IL-13): 0.00% | Effect on PHA-induced release of IFN-γ (%) (IFN-γ): 0.00% | Effect on PHA-induced release of IL-6 (%) (IL-6): 0.00% | Effect on PHA-induced release of IL-1β (%) (IL-1β): 0.00% | Effect on PHA-induced release of IL-2 (%) (IL-2): 0.00% | Effect on PHA-induced release of IL-8 (%) (IL-8): 30.73% | Effect on PHA-induced release of IL-10 (%) (IL-10): 0.00% | Effect on PHA-induced release of IL-4 (%) (IL-4): 0.00% | Effect on PHA-induced release of TNF-α (%) (TNF-α): 39.98%

Immunosuppression (%) ([2]; 0.3 mg/kg/day oral for 10 days): 29.4% | Increase in ear thickness (mm) ([2]; 0.3 mg/kg/day oral for 10 days): 0.108 mm | Increase in ear thickness (%) ([2]; 0.3 mg/kg/day oral for 10 days): 70.6% | Immunosuppression (%) ([2]; 1.0 mg/kg/day oral for 10 days): 45.0% | Increase in ear thickness (mm) ([2]; 1.0 mg/kg/day oral for 10 days): 0.084 mm | Increase in ear thickness (%) ([2]; 1.0 mg/kg/day oral for 10 days): 55.0% | Immunosuppression (%) ([2]; 3.0 mg/kg/day oral for 10 days): 50.3% | Increase in ear thickness (mm) ([2]; 3.0 mg/kg/day oral for 10 days): 0.076 mm | Increase in ear thickness (%) ([2]; 3.0 mg/kg/day oral for 10 days): 49.7%
SMILES: C[C@]12C=CC(=O)C=C1CC[C@@H]1[C@@H]2[C@@H](O)C[C@@]2(C)[C@H]1CC[C@]2(O)C(=O)CO [PRED, prednisolone]
Average ear thickness ([1]; 0 (predose) min after croton oil, vehicle 0.21 ± 0.02): 0.22 ± 0.01 | Average ear thickness ([1]; 90 min after croton oil, vehicle 0.29 ± 0.04): 0.28 ± 0.01 | Average ear thickness ([1]; 120 min after croton oil, vehicle 0.28 ± 0.02): 0.27 ± 0.01 | Anti-inflammatory effect compared with vehicle control group (conclusion in words) ([1]; single oral dose 10 mg/kg, croton oil ear swelling in mice): did not express statistically significant anti-inflammatory effect | Immuno-suppressant activity (conclusion in words) ([2]; daily oral dosing for 10 days to mice, RS-norketotifen 10 or 30 mg/kg, prednisolone at 10 times lower doses): potent and dose-dependent immune suppression
